Measured values from paper PMC6033897, “Characterization and Validation of a Human 3D Cardiac Microtissue for the Assessment of Changes in Cardiac Pathology” (Scientific Reports, 2018).
Counter-ions that a name gives are not always drawn.

Tests used:
hCMEC [1] = assay: Cellular viability (ATP depletion) in 2D monoculture; type: cell-based; details: Homo sapiens
Description: (§1) For 2D monoculture, hiPS-CM, hCMEC and hCF were cultured as described above and seeded in CellCarrier-384 Ultra microplates (Perkin Elmer, 6057300) at 5000, 2500 and 1750 cells/well respectively.
(§2) Cellular ATP concentrations were assessed using the CellTiter-Glo® Luminescent Cell Viability Assay as per the manufacturer’s instructions (Promega); for cardiac microtissues 40 µl media was removed prior to the addition of 40 µl CellTiter-Glo® reagent. […] Data from the same treatment on minimum of 3 occasions were averaged to represent the mean ATP measurement.

hiPS-CM [2] = assay: as above; type: cell-based; details: Homo sapiens
Description: as §1, §2

hCF [3] = assay: Mitochondrial membrane potential (ΔΨm) in 2D monoculture; details: Homo sapiens, read-out: Mitochondrial membrane potential (ΔΨm) IC50
[4] = total Cmax, therapeutically relevant maximum total plasma concentration; source not given; cited from earlier work
hCF [5] = assay: ER integrity in 2D monoculture; details: Homo sapiens, read-out: ER integrity IC50
hCF [6] = assay: Cellular viability (ATP depletion) in 2D monoculture; details: Homo sapiens, read-out: Cellular viability (ATP depletion) IC50
cardiac microtissues [7] = assay: Mitochondrial membrane potential (ΔΨm, TMRE imaging) in cardiac microtissues; type: cell-based, human; details: Homo sapiens; cardiac microtissues, 72 hours, geometric mean; read-out: Mitochondrial membrane potential (ΔΨm) IC50
Description: (§3) Cardiac microtissues were stained with fluorescent probes in cell culture media, 40 µl media was removed and 40 µl of 2x multiplexed dye was added back to the well for 30 minutes at 37 °C, 5% CO2. Fluorescent probes used were ER-Tracker blue (2 µM) to measure endoplasmic reticulum (ER) integrity and TMRE (500 nM) to measure mitochondrial membrane potential (ΔΨm). All microtissues were imaged on a Cell Voyager 7000 (YokogawaInc.) and images captured using a 20x objective (Olympus UPLSAPO 0.75 NA, 0.6 mm WD), with a 2 × 2 bin. Plates are imaged live, prior to use the stage temperature was set to 37 °C and CO2 level at 5%. […] Transmitted light images were acquired using a 100 W Halogen lamp as an illumination source. Images were captured over a 60 μm range in the Z-axis with a 5 μm interval between slices. Z-stack images were output as a maximal projection of multiple z-planes.
(§4) Maximum projection images were imported and analysed in the Columbus Platform (v2.7, Perkin Elmer Inc.).

cardiac microtissues [8] = assay: ER integrity (ER-Tracker blue imaging) in cardiac microtissues; type: cell-based, human; details: Homo sapiens; cardiac microtissues, 72 hours, geometric mean; read-out: ER integrity IC50
Description: as §3, §4

hCMEC [9] = assay: ER integrity in 2D monoculture; type: cell-based; details: Homo sapiens
Description: as §1
(§5) Monoculture cells were stained with fluorescent probes diluted in cell culture media, 25 µl media was removed and 25 µl of 2x multiplexed dye was added back to the well for 15 minutes at 37 °C, 5% CO2.

hiPS-CM [10] = assay: ER integrity in 2D monoculture; type: cell-based; details: Homo sapiens
Description: as §1, §5

hCMEC [11] = assay: Mitochondrial membrane potential (ΔΨm) in 2D monoculture; type: cell-based; details: Homo sapiens
Description: as §1, §5

hiPS-CM [12] = assay: as above; type: cell-based; details: Homo sapiens
Description: as §1, §5

cardiac spheroids = system: cardiac spheroids; design: method as in PMID 28765558; details: alternative cardiac spheroids; cited from earlier work
cardiac microtissues [13] = assay: Cellular viability (ATP depletion, CellTiter-Glo) in cardiac microtissues; type: cell-based, human; details: Homo sapiens, cardiac microtissues, read-out: Cellular viability (ATP depletion) IC50
Description: as §2

COc1cccc2c1C(=O)c1c(O)c3c(c(O)c1C2=O)C[C@@](O)(C(=O)CO)C[C@@H]3O[C@H]1C[C@H](N)[C@H](O)[C@H](C)O1 [Doxorubicin HCl]
IC50 (hCMEC [1]; 24 hours): 1.03 µM
IC50 (hCMEC [1]; 72 hours): 0.1 µM
IC50 (hiPS-CM [2]; 24 hours): 9.26 µM
IC50 (hiPS-CM [2]; 72 hours): 1.01 µM
IC50 (hCF [3]; 24 h): > 50 µM
IC50 (hCF [3]; 72 h): > 50 µM
Cmax [4]: 15.3 µM
IC50 (hCF [5]; 24 h): 6.39 µM
IC50 (hCF [5]; 72 h): 46.6 µM
IC50 (hCF [6]; 24 h): 0.62 µM
IC50 (hCF [6]; 72 h): 0.11 µM
IC50 (cardiac microtissues [7]): 0.18 µM
IC50 (cardiac microtissues [8]): 3.18 µM
IC50 (hCMEC [9]; 24 hours): 43.6 µM
IC50 (hCMEC [9]; 72 hours): 31 µM
IC50 (hiPS-CM [10]; 24 hours): 10.5 µM
IC50 (hiPS-CM [10]; 72 hours): 76.5 µM
IC50 (hCMEC [11]; 24 hours): > 50 µM
IC50 (hCMEC [11]; 72 hours): > 50 µM
IC50 (hiPS-CM [12]; 24 hours): 8.28 µM
IC50 (hiPS-CM [12]; 72 hours): 16.9 µM
Concentration range with significant change in live/dead staining (cardiac spheroids): 5 to 40 µM
IC50 (cardiac microtissues [13]; 24 hours): 15.5 µM
IC50 (cardiac microtissues [13]; 72 hours, geometric mean): 0.83 µM
